≈ marks a conversion by molar mass, not a printed value. Read-outs that look alike come from different tables or passages of the source. A value given as a limit tells only on which side of the number the result lay.

The subject of data set [1] is HBV replication. Description: HBV replication inhibition in HepDES19 cells (strand-preferential qPCR). The note with it: Hepatitis B virus, HepDES19, 72 h, Table 2 amides; HBV replication, HepDES19 cells, plus-polarity DNA, 72 h. The method in brief: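 HepDES19 cells without tetracycline were dosed 48 h after induction of HBV replication and exposed for 72 h at 1% DMSO. Lysates were treated with micrococcal nuclease, then protease, to leave nuclease-protected viral DNA, which was measured by strand-preferential qPCR over 40 cycles.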
(In general: Quantitative PCR measures a nucleic acid by following its amplification.)

A short description of data set [2]: in vitro. The note with it: human, HepDES19 cells.
In data set [3] the test system is HSV-1. The experiment in a line: Anti-HSV-1 replication assay (Vero cells, plaque titer). In kind it is cell-based, herpes simplex virus 1. The note with it: for log reduction at 5 µM: compound at 5 μM, read-out: HSV-1 suppression 5 μM; for log reduction at 5 µM / log reduction at 1 µM: values separated by / are repeats; for log reduction at 1 µM: compound at 1 μM, read-out: HSV-1 suppression 1 μM.

Data set [4] has as its system HepDES19 cells. The conditions noted are these: Table 2 amides, MTT.
Data set [5] concerns C. neoformans var. grubii, KN99. The experiment in a line: C. neoformans growth inhibition assay (limiting dilution). In kind it is cell-based, Cryptococcus neoformans. The conditions noted are these: Table 2 amides, 48 h, 35° C., tested 0.19 to 50 μM, read-out: C. neoformans MIC80. The method in brief: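 Starting OD650 0.001 in YNB (0.2% dextrose, 50 mM MOPS, pH 7.0) with 1% DMSO; static incubation 48 h at 35° C, then shaken and read at OD650. Growth expressed as percent of DMSO control; MIC is the lowest concentration giving 80% inhibition, triplicates over at least two independent assays.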

Data set [6] has as its system E. coli. The experiment in a line: Bacterial growth inhibition (E. coli). Format: cell-based. The conditions noted are these: Escherichia coli.
The target in data set [7] is T1, human RNaseH1 (Homo sapiens, UniProt O60930).
T1 sequence (O60930 1-286): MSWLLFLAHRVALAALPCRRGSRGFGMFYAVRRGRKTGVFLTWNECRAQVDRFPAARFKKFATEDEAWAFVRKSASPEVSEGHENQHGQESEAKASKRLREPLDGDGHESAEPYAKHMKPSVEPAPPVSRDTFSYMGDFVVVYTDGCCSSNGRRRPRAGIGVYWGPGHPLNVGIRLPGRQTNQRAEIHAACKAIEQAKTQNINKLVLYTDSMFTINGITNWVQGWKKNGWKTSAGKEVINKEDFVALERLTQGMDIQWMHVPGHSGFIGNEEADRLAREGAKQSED
The experiment in a line: Biochemical inhibition of human RNaseH1 activity. The conditions noted are these: Table 2 amides; read-out: HuRH1 IC50. The method in brief: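 Human enzyme (0.3 μg) with 100 nM RNA:DNA molecular-beacon substrate, 50 mM HEPES pH 8.0, 100 mM NaCl, 2 mM TCEP, compounds 0 to 500 μM, 5% DMSO; started with 5 mM MgCl2, fluorescence read at 37° C. HBV enzyme (C-terminally truncated MBP-HRHgtCΔ5) run in FRET format, monitored 90 min at 37° C., initial rates calculated.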

Data set [8] addresses HBV RNaseH (MBP-HRHgtCΔ5) (Hepatitis B virus genotype C subtype ayr, UniProt Q69028). The experiment in a line: Biochemical inhibition of HBV RNaseH (FRET-based RNaseH assay). The conditions noted are these: HBV RNaseH IC50 (μM), Table 2 amides. Also noted: a genotype C isolate which lacks the C-terminal 35 amino acids of the HBV RNaseH domain that are predicted to be unstructured; made in house. As for the experimental part:
Biochemical inhibition of human RNaseH1 activity. Quantitative inhibition of the human RNaseH1 in the biochemical assays was assessed using a molecular beacon assay as described previously (Edwards et al., 2017). Recombinant human RNaseH 1 (0.3 μg) was incubated with 100 nM RNA:DNA substrate, 50 mM HEPES pH 8.0, 100 mM NaCl, 2 mM Tris(2-carboxyethyl)phosphine hydrochloride (TCEP), 0.05% Tween20, 5 units of RNaseOut, test compounds (0 to 500 μM), and 5% DMSO in a 100 μL reaction volume. The substrate was formed by annealing a complementary RNA oligonucleotide to a hairpin DNA oligonucleotide to hold the hairpin DNA oligonucleotide in an open conformation. The DNA oligonucleotide has a 5′ fluorescein reporter and a 3′ black hole quencher. […] Reactions were initiated with 5 mM MgCl2 and fluorescence was read using a Synergy HTS multi-mode plate reader at 37° C. […] Quantitative inhibition of the human RNaseH1 in biochemical assays was assessed using a FRET-based RNaseH assay under conditions previously reported for an RNaseH molecular beacon assay (Edwards et al., 2017). […] Cleavage of the RNA strand released the fluorescein from quenching, increasing fluorescence. Reactions were monitored for 90 min at 37° C. in a plate reader and initial reaction rates were calculated. […]

Where [9] appears, read: Human alphaherpesvirus 1, Vero, Table 2 amides.

Chain of HBV RNaseH (MBP-HRHgtCΔ5) (Q69028 691-808, stated change not applied): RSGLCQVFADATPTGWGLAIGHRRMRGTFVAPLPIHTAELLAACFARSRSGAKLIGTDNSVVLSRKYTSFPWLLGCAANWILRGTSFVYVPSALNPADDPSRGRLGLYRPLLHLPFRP

The term EC50 denotes the concentration giving half of the maximal effect. As usually defined, the CC50 is the concentration at which the toxic effect on the cells reaches its halfway point. Low values mean harm at low concentration, high ones better tolerance by the cells. Usually MIC80 stands for the lowest concentration that inhibits either 80% of growth or 80% of the strains tested, depending on the study. Consider `Cc1cc(O)c(=O)c(O)cc1C(=O)N1CCNCC1` [compound 391], for which the 50% effective concentration (EC50) in data set [1] turned out to be 460 ± 200 nM. Moreover, the CC50 at 24 h in data set [2] (CC50) is greater than 20 µM. Besides, in data set [3] (setting [9]), the log reduction at 5 µM is 0.29. For the same compound, the CC50 in data set [4] is 37.5 ± 4.8 µM. The MIC80 in data set [5] was 40 µM (≈ 10.6 µg/mL).
`Cc1cc(O)c(=O)c(O)cc1C(=O)N1CCNCC1` [compound 404]: the “Reduction of HSV-1 titers / suppression of HSV-1 replication at 5 μM” value in data set [3] (5 μM, plaque forming units (PFU)/ml) is “undetectable”. Moreover, in data set [4], the CC50 came to 4.5 ± 1.4 µM. The MIC80 in data set [5] was determined as 9 µM (≈ 2.38 µg/mL).
The term IC50 denotes the point on the concentration scale where inhibition reaches its midpoint. Consider `Cc1cc(O)c(=O)c(O)cc1C(=O)NCCc1ccccc1` [compound 710], for which the MIC80 in data set [6] was determined as 30 µM (≈ 8.98 µg/mL); in data set [5] (Cryptococcus neoformans), 2.5 µM (≈ 0.748 µg/mL). The same compound returned a CC50 at 24 h in data set [2] (CC50 (μM), Table 2 amides, MTT) of 4.5 ± 3 µM. Moreover, the log reduction at 1 µM in data set [3] (setting [9]) worked out at 0.15. For the same compound, the log reduction at 5 µM in data set [3] (setting [9]) amounted to 1.69. The IC50 in data set [7] worked out at 32.3 ± 3.2 µM.
For `Cc1cc(O)c(=O)c(O)cc1C(=O)NCc1ccc(OC(F)(F)F)cc1` [compound 804], the IC50 in data set [8] is 285 ± 226 µM; in data set [7], 802 ± 397 µM. It took 30.1 ± 18 µM to reach half-maximal cytotoxicity in data set [2] (CC50 (μM), Table 2 amides, MTT) (CC50 at 24 h). The log reduction at 0.33 µM in data set [3] (Human alphaherpesvirus 1, Vero, Table 2 amides, compound at 0.33 μM, read-out: HSV-1 suppression 0.33 μM) was determined as 0.191. In data set [3] (setting [9]), the log reduction at 1 µM worked out at 0.292. For the same compound, the log reduction at 5 µM in data set [3] (setting [9]) stood at 1.75. In data set [5] (Cryptococcus neoformans), the MIC80 is 6.8 µM (≈ 2.51 µg/mL).
Turning to `Cc1cc(O)c(=O)c(O)cc1C(=O)Nc1ccc(OCc2ccccc2)cc1` [compound 837], the IC50 in data set [8] was 118 ± 88.7 µM; in data set [7], 625 ± 451 µM. Besides, half-maximal cytotoxicity in data set [2] (CC50 (μM), Table 2 amides, MTT) (CC50 at 24 h) was put at 8.7 ± 3.4 µM. In data set [3] (setting [9]), the log reduction at 5 µM was found to be 4.09. For the same compound, the MIC80 in data set [5] (Cryptococcus neoformans) was 4.5 µM (≈ 1.7 µg/mL).
